In PMC12584752, “Covalent fragment screening to inhibit the E3 ligase activity of bacterial NEL enzymes SspH1 and SspH2” (RSC Chemical Biology, 2025):
“Also recorded” adds a separate entry of the source.

Tests used:
Assay in all cases: Intact LC-MS labelling selectivity
Format in all cases: binding
Conditions in all cases: dilution series 100–6.25 μM, 24 hours at 4 °C
DUB OTUD4 = biological target: T1, DUB OTUD4 (Homo sapiens, UniProt Q01804)
T1 construct: OTUD4 aa 1–156; His-tag (N, cleaved yes); made in house; host or cells: E. coli BL21
T1 sequence (Q01804 1-156): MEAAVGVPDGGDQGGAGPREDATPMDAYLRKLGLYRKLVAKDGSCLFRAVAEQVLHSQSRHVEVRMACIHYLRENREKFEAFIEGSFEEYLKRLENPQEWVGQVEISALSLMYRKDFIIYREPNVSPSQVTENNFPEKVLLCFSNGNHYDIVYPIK
Experimental: (§1) Fig. 3 Validation of HTC hit compounds by intact MS. Labelling heatmaps of dilution series (100–6.25 μM) of compounds 4–10 with (A) WT SspH1 and (B) C492K SspH1. Labelling heatmaps of dilution series of (C) compound 6 and (D) compound 7 with bacterial and human ubiquitin binding proteins. Recombinant proteins were incubated at either 1.0 or 0.5 μM with 50 μM fragments for 24 hours at 4 °C, before fragment labelling was analysed by intact LC-MS. Bacterial proteins are shown in bold and human proteins in italic fonts. (E)–(H) Kinetics analyses: time courses (0–12 hours) of compound labelling (100–1.56 μM) of SspH1 and SspH2 (0.5 μM) for (E) SspH1 and compound 7, and (F) SspH2 and compound 6. Measurements were performed in technical triplicates. Labelling percentages were plotted against time in GraphPad Prism v.10, and curves fitted separately for each replicate using one-phase association, with constraints Y0 = 0 and plateau = highest labelling percentage. Graphs for SspH1 and compound 6, and SspH2 and compound 7 are shown in Fig. S4A and B. Rate constants (kobs, as given by Graphpad Prism calculated K values) were plotted against fragment concentration in triplicate for (G) SspH1 and (H) SspH2. Straight lines were fitted with constraint Yintercept = 0. For SspH2 kinetics, 100 μM kobs was outside the linear range.
(§2) To mitigate the risk of selecting compounds which indiscriminately recognise ubiquitin binding proteins, we next performed preliminary selectivity studies with compounds 6 and 7 against human ubiquitin system proteins. […] In parallel, we tested the compounds against related NEL E3 ligases SspH2 and IpaH9.8. […] Our identification of dual SspH1 and SspH2 ligands is likely due to the high protein sequence similarity of SspH1 and SspH2 (60% for full length; 78% for NEL domains).
(§3) Dilution series experiments were performed as for 1st round screening. 1 μM OTUD4, OTUD5 or 0.5 μM HOIL, UbcH5A, SspH2, SspH1 C492K were incubated with 100–6.25 μM compounds for 24 hours at 4 °C, in 25 mM HEPES pH 7.5, 50 mM NaCl buffer. Intact protein LC-MS was performed as previously described.[40] The following deconvolution conditions were used for recombinant proteins studied in this work: […]

DUB OTUD5 = biological target: T2, DUB OTUD5 (Homo sapiens, UniProt Q96G74)
T2 construct: OTUD5 aa 172–351; His-tag (N, cleaved yes); made in house; host or cells: E. coli BL21
T2 sequence (Q96G74 172-351): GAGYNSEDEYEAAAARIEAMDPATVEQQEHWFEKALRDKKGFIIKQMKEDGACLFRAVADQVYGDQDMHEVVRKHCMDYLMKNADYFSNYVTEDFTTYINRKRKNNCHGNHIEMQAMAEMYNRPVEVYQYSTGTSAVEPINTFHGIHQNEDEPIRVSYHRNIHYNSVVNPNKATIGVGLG
Experimental: as §1, §2, §3

HECT-type E3 UBE3C = biological target: T3, HECT-type E3 UBE3C (Homo sapiens, UniProt Q15386)
T3 construct: UBE3C; 693–1083; His-tag (N, cleaved yes); made in house; host or cells: E. coli BL21
T3 sequence (Q15386 693-1083): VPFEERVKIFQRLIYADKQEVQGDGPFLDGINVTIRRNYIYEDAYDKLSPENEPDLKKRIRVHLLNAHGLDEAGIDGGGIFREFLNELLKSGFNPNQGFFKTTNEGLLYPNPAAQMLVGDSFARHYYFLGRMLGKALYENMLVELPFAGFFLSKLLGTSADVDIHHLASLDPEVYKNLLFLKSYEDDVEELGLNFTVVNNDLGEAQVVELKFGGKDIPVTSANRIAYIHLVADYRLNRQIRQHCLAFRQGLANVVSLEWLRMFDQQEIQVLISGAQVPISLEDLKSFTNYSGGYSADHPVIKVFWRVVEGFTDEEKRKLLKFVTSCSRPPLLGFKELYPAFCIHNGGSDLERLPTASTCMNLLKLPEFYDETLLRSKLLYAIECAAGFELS
Experimental: as §1, §2, §3

RBR-type E3 HOIL = biological target: T4, RBR-type E3 HOIL (Homo sapiens, UniProt Q9BYM8)
T4 construct: HOIL aa 1–510; His-tag (N, cleaved yes); made in house; host or cells: E. coli BL21
T4 sequence (Q9BYM8 1-510): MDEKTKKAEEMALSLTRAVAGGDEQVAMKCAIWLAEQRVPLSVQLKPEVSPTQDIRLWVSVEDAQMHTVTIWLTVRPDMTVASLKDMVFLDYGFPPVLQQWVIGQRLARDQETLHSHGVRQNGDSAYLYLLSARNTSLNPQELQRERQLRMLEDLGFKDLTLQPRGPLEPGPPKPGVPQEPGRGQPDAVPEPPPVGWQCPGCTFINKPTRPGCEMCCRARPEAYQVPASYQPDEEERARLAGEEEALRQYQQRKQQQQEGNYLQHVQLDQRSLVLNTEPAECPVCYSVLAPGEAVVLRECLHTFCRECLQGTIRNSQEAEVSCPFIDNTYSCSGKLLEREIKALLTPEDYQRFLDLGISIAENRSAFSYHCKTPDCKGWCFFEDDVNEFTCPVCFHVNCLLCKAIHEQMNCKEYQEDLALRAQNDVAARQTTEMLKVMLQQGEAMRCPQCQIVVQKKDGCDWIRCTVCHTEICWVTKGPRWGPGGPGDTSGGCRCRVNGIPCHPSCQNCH
Experimental: as §1, §2, §3

human E2 UbcH5A = biological target: T5, human E2 UbcH5A (Homo sapiens, UniProt P51668)
T5 construct: UbcH5A aa 1–147; His-tag (N, cleaved yes); made in house; host or cells: E. coli BL21
T5 sequence (P51668 whole entry, the tested form may be a part): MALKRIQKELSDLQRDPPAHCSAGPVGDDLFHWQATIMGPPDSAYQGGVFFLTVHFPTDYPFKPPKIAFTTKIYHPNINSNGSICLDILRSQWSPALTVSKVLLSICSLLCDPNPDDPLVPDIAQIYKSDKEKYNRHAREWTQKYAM
Experimental: as §1, §2, §3

SMILES	labelling of OTUD4 (DUB OTUD4)	labelling of OTUD5 (DUB OTUD5)	labelling of UBE3C (HECT-type E3 UBE3C)	labelling of HOIL (RBR-type E3 HOIL)	labelling of UbcH5A (human E2 UbcH5A)
Cc1cc(-c2nc3ccccc3n2C2CCN(C(=O)CCl)CC2)cc(C)c1O.Cl [compound 6]	minimal or no labelling	minimal or no labelling	minimal or no labelling	minimal or no labelling	minimal or no labelling; also recorded: not labelled
Cl.O=C(CCl)N1CCC(n2c(-c3ccc(C(F)(F)F)cc3)nc3ccccc32)CC1 [compound 7]	minimal or no labelling	minimal or no labelling	minimal or no labelling	minimal or no labelling	minimal or no labelling; also recorded: not labelled
